From BigSolDB 2.1

SMILES: O=P(Oc1ccccc1)(Oc1ccccc1)N1CCN(P(=O)(Oc2ccccc2)Oc2ccccc2)CC1
- solubility (mole fraction) (in THF, 293.15 K): 0.00109
- solubility (mole fraction) (in THF, 298.15 K): 0.00143
- solubility (mole fraction) (in THF, 303.15 K): 0.00183
- solubility (mole fraction) (in THF, 308.15 K): 0.00236
- solubility (mole fraction) (in THF, 313.15 K): 0.00301
- solubility (mole fraction) (in THF, 318.15 K): 0.00375
- solubility (mole fraction) (in THF, 323.15 K): 0.00493
- solubility (mole fraction) (in THF, 328.15 K): 0.00605
- solubility (mole fraction) (in THF, 333.15 K): 0.00766
- solubility (mole fraction) (in acetone, 293.15 K): 0.000424
- solubility (mole fraction) (in acetone, 298.15 K): 0.000489
- solubility (mole fraction) (in acetone, 303.15 K): 0.000559
- solubility (mole fraction) (in acetone, 308.15 K): 0.000631
- solubility (mole fraction) (in acetone, 313.15 K): 0.000717
- solubility (mole fraction) (in acetone, 318.15 K): 0.000795
- solubility (mole fraction) (in acetone, 323.15 K): 0.000901
- solubility (mole fraction) (in benzene, 293.15 K): 0.00268
- solubility (mole fraction) (in benzene, 298.15 K): 0.00319
- solubility (mole fraction) (in benzene, 303.15 K): 0.00385
- solubility (mole fraction) (in benzene, 308.15 K): 0.00458
- solubility (mole fraction) (in benzene, 313.15 K): 0.00549
- solubility (mole fraction) (in benzene, 318.15 K): 0.00632
- solubility (mole fraction) (in benzene, 323.15 K): 0.00724
- solubility (mole fraction) (in benzene, 328.15 K): 0.00834
- solubility (mole fraction) (in benzene, 333.15 K): 0.00972
- solubility (mole fraction) (in benzene, 338.15 K): 0.0112
- solubility (mole fraction) (in benzene, 343.15 K): 0.0129
- solubility (mole fraction) (in chloroform, 293.15 K): 0.0132
- solubility (mole fraction) (in chloroform, 298.15 K): 0.0146
- solubility (mole fraction) (in chloroform, 303.15 K): 0.0162
- solubility (mole fraction) (in chloroform, 308.15 K): 0.0183
- solubility (mole fraction) (in chloroform, 313.15 K): 0.0202
- solubility (mole fraction) (in chloroform, 318.15 K): 0.0223
- solubility (mole fraction) (in chloroform, 323.15 K): 0.0245
- solubility (mole fraction) (in dichloromethane, 288.15 K): 0.00585
- solubility (mole fraction) (in dichloromethane, 293.15 K): 0.00725
- solubility (mole fraction) (in dichloromethane, 298.15 K): 0.00878
- solubility (mole fraction) (in dichloromethane, 303.15 K): 0.0106
- solubility (mole fraction) (in dichloromethane, 308.15 K): 0.013
- solubility (mole fraction) (in ethanol, 293.15 K): 0.000495
- solubility (mole fraction) (in ethanol, 298.15 K): 0.000613
- solubility (mole fraction) (in ethanol, 303.15 K): 0.000746
- solubility (mole fraction) (in ethanol, 308.15 K): 0.000946
- solubility (mole fraction) (in ethanol, 313.15 K): 0.00113
- solubility (mole fraction) (in ethanol, 318.15 K): 0.00134
- solubility (mole fraction) (in ethanol, 323.15 K): 0.00158
- solubility (mole fraction) (in ethanol, 328.15 K): 0.00186
- solubility (mole fraction) (in ethanol, 333.15 K): 0.00221
- solubility (mole fraction) (in ethanol, 338.15 K): 0.00269
- solubility (mole fraction) (in ethanol, 343.15 K): 0.0032
- solubility (mole fraction) (in ethyl acetate, 293.15 K): 0.000826
- solubility (mole fraction) (in ethyl acetate, 298.15 K): 0.00103
- solubility (mole fraction) (in ethyl acetate, 303.15 K): 0.00122
- solubility (mole fraction) (in ethyl acetate, 308.15 K): 0.00158
- solubility (mole fraction) (in ethyl acetate, 313.15 K): 0.00194
- solubility (mole fraction) (in ethyl acetate, 318.15 K): 0.00242
- solubility (mole fraction) (in ethyl acetate, 323.15 K): 0.00301
- solubility (mole fraction) (in ethyl acetate, 328.15 K): 0.0036
- solubility (mole fraction) (in ethyl acetate, 333.15 K): 0.00437
- solubility (mole fraction) (in ethyl acetate, 338.15 K): 0.00521
- solubility (mole fraction) (in ethyl acetate, 343.15 K): 0.00614
- solubility (mole fraction) (in methanol, 293.15 K): 3.28e-05
- solubility (mole fraction) (in methanol, 298.15 K): 5.77e-05
- solubility (mole fraction) (in methanol, 303.15 K): 9.84e-05
- solubility (mole fraction) (in methanol, 308.15 K): 0.000156
- solubility (mole fraction) (in methanol, 313.15 K): 0.000251
- solubility (mole fraction) (in methanol, 318.15 K): 0.000415
- solubility (mole fraction) (in methanol, 323.15 K): 0.000656
- solubility (mole fraction) (in toluene, 293.15 K): 0.000506
- solubility (mole fraction) (in toluene, 298.15 K): 0.000616
- solubility (mole fraction) (in toluene, 303.15 K): 0.000782
- solubility (mole fraction) (in toluene, 308.15 K): 0.000986
- solubility (mole fraction) (in toluene, 313.15 K): 0.00124
- solubility (mole fraction) (in toluene, 318.15 K): 0.00148
- solubility (mole fraction) (in toluene, 323.15 K): 0.00178
- solubility (mole fraction) (in toluene, 328.15 K): 0.00213
- solubility (mole fraction) (in toluene, 333.15 K): 0.00251
- solubility (mole fraction) (in toluene, 338.15 K): 0.00313
- solubility (mole fraction) (in toluene, 343.15 K): 0.00371
